Measurements as given in patent US4552882A, “7-(1-Pyrrolyl) derivatives of 1-ethyl-1,4-dihydro-4-oxoquinoline-3-carboxylic acids and 1-ethyl-1,4-dihydro-4-oxo-1,8-naphthyridine-3-carboxylic acids and their use as antimicrobial agents” (Provesan, SA, priority 1983, dated 1985).
Values after ≈ are worked out from the molar mass of the structure shown.

What was measured:
Experiment in all cases: MIC in vitro
[1] = system: Staphylococcus aureus ATCC 5488/23; assay type: cell-based; details: ATCC5488, Dextrose agar, 37° C., 20 hours
Excerpt: (§1) (G. L. Daquet and Y. A. Chabbect, Techniques en bacteriologie (Bacteriological techniques), vol. 3, Flammarion Medecine Sciences, Paris, 1972 and W. B. Hugo and A. D. Rusell, Pharmaceutical Microbiology, Blackwell Scientific Publications, London, (1977)). Antibiotic medium no. 1 (seed agar) (Oxoid CM 327) Tryptone-soya broth (Oxoid CM 129) Ringer's physiological solution 1/4 (oxoid BR 52) Dextrose agar (BBL-11165) 0.1 N NaOH "Staphylococcus aureus" ATCC 5488/23 Each of the microorganisms is seeded by streaking in tubes of Antibiotic medium No. 1 (seed agar), which are then incubated at 37° C. for 20 hours. Using a culture loop, the cultures are then seeded in tryptone-soyabroth and incubated at 37° C. for 20 hours. The culture obtained is diluted to 1/4 with Ringer's physiological solution, so as to obtain a standardized suspension of 10^7 -10^9 cfu/ml for each organism. Starting from a solution of 1,000 μg/ml in 0.1 N NaOH, each product is diluted in Dextrose agar (previously melted and maintained at 50° C.), with successive dilutions so as to obtain the following concentrations: 64--32--16--8--4--2--1--0.5--0.25--0.125 μg of derivative/ml medium. For each product, the solution of each concentration is subsequently distributed into Petri dishes 10 cm in diameter, with 10 ml of medium per dish and the same number of dishes as microorganisms to be tested. As soon as the medium has cooled, the dishes are seeded with the inoculations using 0.4 ml of inoculation per dish. They are spread with a Driglasky loop and the supernatant is removed. The seeded dishes are incubated at 37° C. for 20 hours.

[2] = system: Enterobacter cloacae CHSP 20; assay type: cell-based; details: CHSP20, Dextrose agar, 37° C., 20 hours
Protocol: as §1, with “"Enterobacter cloacae" CHSP 20” for “"Staphylococcus aureus" ATCC 5488/23”

[3] = system: Pseudomonas aeroginosa ADSA 47; assay type: cell-based, Pseudomonas aeruginosa; details: ADSA47, Dextrose agar, 37° C., 20 hours
Protocol: as §1, with “"Pseudomonas aeruginosa" ADSA 47” for “"Staphylococcus aureus" ATCC 5488/23”

SMILES: CCn1cc(C(=O)O)c(=O)c2ccc(-n3cccc3)cc21 [Example 1, 7-(1-pyrrolyl)-1-ethyl-1,4-dihydro-4-oxo-3-quinolinecarboxylic acid]
- MIC [1]: 1 µg/mL (≈ 3.54 µM)
- MIC [2]: 16 µg/mL (≈ 56.7 µM)
- MIC [3]: > 64 µg/mL

SMILES: CCn1cc(C(=O)O)c(=O)c2cc(F)c(-n3cccc3)cc21 [Example 2, 6-fluoro-7-(1-pyrrolyl)-1-ethyl-1,4-dihydro-4-oxo-3-quinolinecarboxylic acid]
- MIC [1]: 0.25 µg/mL (≈ 0.833 µM)
- MIC [2]: 1 µg/mL (≈ 3.33 µM)
- MIC [3]: 64 µg/mL (≈ 213 µM)

SMILES: CCn1cc(C(=O)O)c(=O)c2ccc(-n3cccc3)nc21 [Example 3, 1-ethyl-1,4-dihydro-4-oxo-7-(1-pyrrolyl)-1,8-naphthyridine-3-carboxylic acid]
- MIC [1]: 8 µg/mL (≈ 28.2 µM)
- MIC [2]: 8 µg/mL (≈ 28.2 µM)
- MIC [3]: > 64 µg/mL

SMILES: CCn1cc(C(=O)O)c(=O)c2cc(F)c(-n3cccc3)nc21 [Example 4, 1-ethyl-1,4-dihydro-4-oxo-6-fluoro-7-(1-pyrrolyl)-1,8-naphthyridine-3-carboxylic acid]
- MIC [1]: 0.5 µg/mL (≈ 1.66 µM)
- MIC [2]: 2 µg/mL (≈ 6.64 µM)
- MIC [3]: > 64 µg/mL

SMILES: CCn1cc(C(=O)O)c(=O)c2cnc(N3CCNCC3)nc21 [Pipemidic acid, reference compound]
- MIC [1]: 64 µg/mL (≈ 211 µM)
- MIC [2]: 8 µg/mL (≈ 26.4 µM)
- MIC [3]: 32 µg/mL (≈ 105 µM)
